Patent US4737362A, “Hair treatment composition” (Suntory Limited, priority 1983, dated 1988)

Target: testosterone 5α-reductase
Test: 5α-reductase inhibitory activity (conversion of radiolabelled testosterone to 5α-dihydrotestosterone, microsomal enzyme specimen)
Type: biochemical, rats
Conditions: rat prostate microsomes; pH 6.6; 25° C.; 60 minutes; 8.5 pmol labelled testosterone
Method: The 5α-reductase inhibitory activity was determined as follows.
Prostate gland cells of rats were crushed and a specimen of testosterone 5α-reductase was then prepared by separating microsome from the crushed liquid mixture. The conversion of the testosterone to 5α-dihydrotestosterone by the use of the above-prepared enzyme specimen was monitored by radioisotopically labelled testosterone. The reaction mixture was extracted with ethyl acetate and the extract was developed twice by silica gel thin layer chromatography (solvent system, dichloromethane:cyclohexane:acetone=15:4:1). The amount of 5α-dihydrotestosterone was determined from the intensities of the radioactivity.
A 30 μl amount of a 0.05 M phosphate buffer (pH=6.6), 10 μl of an enzyme specimen, 8.5 pmol of labelled testosterone, 50 nmol of a reduced form of NADP (nicotinamide adenine dinucleotide phosphate), and 10 μl of a test sample were mixed (final volume […]). The mixture was incubated at a temperature of 25° C. for 60 minutes.
The reaction was stopped by the addition of 100 μl of ethyl acetate, and the reaction mixture was extracted by vigorous shaking. The extract was developed in the same manner as mentioned above, and the intensity of the radioisotope was measured by using a scintillation counter.
The above-mentioned determination was applied to samples having various concentrations. […]

Row | Structure (SMILES) | IC50
1 | CC/C=C\C/C=C\C/C=C\CCCCCCCC(=O)O [Linolenic acid] | 1600 µM
2 | CCCCCCCCCCCCCCCCCC(=O)O [Stearic acid] | 1300 µM
